# Patent US20210130308A1, “MODULATORS OF EUKARYOTIC INITIATION FACTOR 2” (Denali Therapeutics Inc., priority 2018, published 2021)
# System: ATF4 translation (ISR pathway activation)
# Assay: ATF4 Nano Luciferase reporter integrated stress response (ISR) assay in H4 ATF4-NLuc (clone 17) cells
# Assay type: cell-based, human
# Conditions: Homo sapiens, 0.5 h
# Method in brief: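 H4 cells stably carrying an ATF4 5′-UTR (+1 to +364)–NanoLuc fusion reporter (clone 17), in DMEM + 10% FBS, preincubated with compound 30 min at 37 °C. ISR then induced with 50 um sodium arsenite for 6 h; inhibition measured as NanoLuc luminescence, expressed as IC50.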
row,Structure (SMILES),IC50 [nM]
1,O=C(COC1CCN(CC(F)(F)F)C1)NC12CC(NC(=O)c3ccc4cc(C(F)(F)F)ccc4n3)(C1)C2 (stereo not drawn) [Example 73],< 1000

# Same assay, conditions: Homo sapiens, 0.5 h; H4 ATF4-NLuc (clone 17) cells; compounds 30 minutes at 37 degree Celsius, then 50 um sodium arsenite for 6 additional hours; luminescence readout; read-out: IC50
row,Structure (SMILES),IC50 [nM]
1,"O=C(NC1CCN(C(=O)COC2CC(OC(F)(F)F)C2)CC1)c1ccc2cc(Cl)ccc2n1 (stereo not drawn) [Example 63, 6-chloro-N-[1-[2-[3-cis-(trifluoromethoxy)cyclobutoxy]acetyl]-4-piperidyl]quinoline-2-carboxamide]",< 1000
2,"O=C(COC1CC(OC(F)(F)F)C1)NC12CC(NC(=O)c3ccc4cc(Cl)ccc4n3)(C1)C2 (stereo not drawn) [Example 64, 6-chloro-N-[1-[[2-[3-cis-(trifluoromethoxy)cyclobutoxy]acetyl]amino]-3-bicyclo[1.1.1]pentanyl]quinoline-2-carboxamide]",< 1000
3,"O=C(COC1CCC1)NC12CC(NC(=O)c3ccc4cc(Cl)ccc4n3)(C1)C2 [Example 65, 6-chloro-N-[1-[[2-(cyclobutoxy)acetyl]amino]-3-bicyclo[1.1.1]pentanyl]quinoline-2-carboxamide]",< 1000
4,"O=C(COC1CC(OC(F)(F)F)C1)NC12CC(NC(=O)c3ccc4cc(F)ccc4n3)(C1)C2 (stereo not drawn) [Example 66, 6-fluoro-N-[1-[[2-[3-cis-(trifluoromethoxy)cyclobutoxy]acetyl]amino]-3-bicyclo[1.1.1]pentanyl]quinoline-2-carboxamide]",< 1000
5,"O=C(COC1CC(C(F)(F)F)C1)NC12CC(NC(=O)c3ccc4cc(C(F)(F)F)ccc4n3)(C1)C2 (stereo not drawn) [Example 67, 6-(trifluoromethyl)-N-(3-(2-(3-(trifluoromethyl)cyclobutoxy)acetamido)bicyclo[1.1.1]pentan-1-yl)quinoline-2-carboxamide]",< 1000
6,"O=C(COC1CC(OC(F)(F)F)C1)NC12CC(NC(=O)c3ccc4c(F)c(F)ccc4n3)(C1)C2 (stereo not drawn) [Example 68, 5,6-difluoro-N-(3-(2-(3-cis-(trifluoromethoxy)cyclobutoxy)acetamido)bicyclo[1.1.1]pentan-1-yl)quinoline-2-carboxamide]",< 1000
7,"O=C(COC1CC(OC(F)(F)F)C1)NC12CC(NC(=O)c3ccc4cc(F)c(F)cc4n3)(C1)C2 (stereo not drawn) [Example 69, 6,7-difluoro-N-(3-(2-(3-cis-(trifluoromethoxy)cyclobutoxy)acetamido)bicyclo[1.1.1]pentan-1-yl)quinoline-2-carboxamide]",< 1000
8,"CC(C)OC1CC(OCC(=O)NC23CC(NC(=O)c4ccc5cc(C(F)(F)F)ccc5n4)(C2)C3)C1 (stereo not drawn) [Example 70, N-(3-(2-(3-cis-isopropoxycyclobutoxy)acetamido)bicyclo[1.1.1]pentan-1-yl)-6-(trifluoromethyl)quinoline-2-carboxamide]",< 1000
9,"CCOC1CC(OCC(=O)NC23CC(NC(=O)c4ccc5cc(C(F)(F)F)ccc5n4)(C2)C3)C1 (stereo not drawn) [Example 71, N-(3-(2-(3-cis-ethoxycyclobutoxy)acetamido)bicyclo[1.1.1]pentan-1-yl)-6-(trifluoromethyl)quinoline-2-carboxamide]",< 1000
10,O=C(COc1ccc(C(F)(F)F)cc1)NC12CC(N3CCN(C4CC(OC(F)(F)F)C4)C3=O)(C1)C2 (stereo not drawn) [Example 74],< 1000
11,O=C(COC1CC(CC(F)(F)F)C1)NC12CC(NC(=O)c3ccc4cc(C(F)(F)F)ccc4n3)(C1)C2 (stereo not drawn) [Example 75],< 1000
